Several values for one entry are separate records, joined by “and”; a condition that tells them apart may be missing. Identical values can stand only once.
How the values were obtained:
[1] = test system: androgenetic alopecia and telogen effluvium in Men; test: Comparative analysis of clinical trial results in men versus standard of care, adjusted to 24 weeks; type: in vivo, human
[2] = test system: androgentic alopecia and telogen effluvium in Women; test: Comparative analysis of clinical trial results in women versus standard of care, adjusted to 24 weeks; type: in vivo, human
[3] = test system: procaspase-8, caspase-3, procaspase-9, Bax, p53, Bcl-2, Bcl-XL; conditions: mouse model of hair loss; cited from earlier work
[4] = test system: Wnt/beta-Catenin signaling; test: TopFlash/FopFlash luciferase assay of Wnt/beta-Catenin signaling in transfected HDPSCs; type: cell-based, human
Description: The cells were then seeded onto a collagen coated 96-well plate (white opaque with clear bottom, Greiner Bio-one 655098) using 2500 cells per well on average with 200 μL supplemented D-MEM. […] In a 1.5 or 2 mL centrifuge tube, 60 μL FuGene® 6 was added to 500 μL DMEM (with no supplements or antibiotics) medium and mixed gently, then incubated for 5 min. 1) and 2) were combined and mixed gently, then incubated for 20 min at room temperature with occasional gentle mixing by hand. Old medium was removed from all wells and replaced with 100 μL fresh supplemented D-MEM. […] was then added to each well and mixed gently by pipette. Medium was changed after 4-6 h with 100 μL fresh supplemented DMEM. […] The treatments were performed three times once a day for a total of three days of treatment. Medium was removed from each well and wells were washed with 50 μL room temperature PBS so that no colour could be seen leftover. 20 μL lysis solution was added to each well and hand shaken every few minutes for a total of 15 mins. The fluorescence spectrophotometer (Varian Cary Eclipse model) was set to: • Data mode: Bio/Chemi-luminescence • Emission wavelength: 560.00 nm • Stop time: 0.8 mins • PMT Detector Voltage: […] 3 of the duplicates of the wells from 3) were used to count the cells in each well and estimate a count for each type of extract. Stimulation of stem cell growth and proliferation can be achieved by activation of the Wnt/beta-Catenin signaling pathway. Having confirmed proliferation of […] by exposure to grapeseed, skullcap, eclipta and Biotin and combinations thereof, a series of studies were conducted to detect and measure the upregulation of the Wnt/beta-Catenin protein as the activation mechanism of the HDPSC proliferation. The method selected for the Wnt/beta-Catenin protein studies was transfection with Topflash and Fopflash plasmids followed by measuring luciferase activity by bioluminescence assays. Topflash and Fopflash plasmids were obtained as bacterial stab cultures from Add gene. Plasmid DNA was purified using the Norgen Biotek kit (info). […] Old medium was removed and replaced with 100 μL fresh complete medium. 20 μL of DNA/FuGENETM 6 mixture was added and mixed gently by pipette. After 4-6 h, medium was removed and replaced with 100 μL fresh complete medium. Botanical extracts were then added to each well. Treatments lasted 72 h with media/extracts refreshed every 24 h. Activation of Wnt/beta-Catenin signaling was assayed as luciferase activity using standard bioluminescence assays. Media from each well was removed and cells were washed twice with 50 μL PBS. 20 μL of cell lysis solution was then added to each well and the plate was incubated at room temperature for 15 min. Luminescence at 560±10 nm was measured using a Varian Cary Eclipse fluorescence spectrophotometer. […] Following transfection, cells were treated for three days as for the MTT assay and then assayed for luciferase activity using standard assays. […] To evaluate whether the extract combinations with Biotin identified in FIG. 1 activate Wnt/beta-Catenin signaling, […] were transfected with Topflash plasmid, which contains the luciferase cDNA and several tandem repeats of the Wnt/beta-Catenin response element.^230 Following transfection, cells were treated for three days as for the MTT assay and then assayed for luciferase activity using standard assays.

[5] = test system: human dermal papilla stem cells (HDPSCs); test: MTT assay of HDPSC growth/proliferation in culture; type: cell-based; conditions: for MTT signal (absorbance at 570 nm), mean relative to Control 1.00: n = 6; for Change vs Control (stem cells, MTT): Table 5e; for Change in Stem Cells (MTT signal, mean relative to Control 1.00): n = 29-30
Description: Passage 3 human dermal papilla stem cells (HDPSCs) from a person were purchased from Sigma-Aldrich (Burlington, ON, Canada) and all work was performed under Brock University Research Ethics Board approval (File 15-138). The cells were grown on collagen-coated plates in a 50:50 mixture of Dulbecco's modified Eagles medium (DMEM):Ham's F12 media (Sigma) supplemented with 10% fetal bovine serum (FBS), 1% Gluta-Max™, 0.1% penicillin/streptomycin, 20 ng/mL human fibroblast growth factor, and 10 ng/mL human epidermal growth factor (complete medium). Cell cultures were maintained in incubators set to 5% CO2, 37° C. and 100% humidity. Experiments were performed under conditions of unregulated O2 (18-19%), except where indicated. Cells initially underwent 5-7 passages and were then stored frozen in vials of one million cells each in the above medium supplemented with 10% dimethylsulfoxide (DMSO) and stored in liquid nitrogen. For each experiment, a single vial was thawed, grown overnight, and used to seed 96-well plates.
Botanical extracts and Biotin were screened for their ability to stimulate HDPSC growth in culture using a 96-well plate format with MTT assay as an endpoint. Cells were treated for 72 h with various concentrations and combinations (as indicated, range; 1×10^−1-1×10^−5) of extracts (Table 5a). All the ingredients were able to stimulate growth or cell proliferation above control to varying rates and by varied concentrations.
Cell proliferation was assessed by MTT [3-(4,5-dimethylthiazol-2-yl)-2,5-diphenyltetrazolium bromide] assay according to the manufacturer's recommendations. HDPSCs were seeded onto collagen-coated 96-well plates at~2000 cells/well and grown in complete medium overnight. The next day, indicated concentrations of botanical extracts were added to individual wells.
For all constituents, lyophilized extracts (botanicals) or oil (Biotin) were initially dissolved in PBS at the following concentrations: Biotin 0.25 mg/mL; grapeseesd 7.5 mg/mL; skullcap 1.7 mg/mL; eclipta 3.0 mg/mL. These solutions were sterilized by passing through a 0.45 μm syringe filter. The following dilutions of these solutions, referred to as “Stock Solutions”, were then used for experimental treatments in cell culture media: Biotin (1:100); grapeseed (1:1000); skullcap (1:1000); eclipta (1:100). DMEM media and extracts were refreshed each day. The following day, the MT assay was performed to evaluate cell growth. For this, all media/extract was removed from wells and replaced with phenol-red free DMEM. The cells were incubated for 2 h at 37° C. in a tissue culture incubator. Solubilization solution was then applied to lyse cells and the mixture was triturated repeatedly. The solubilized solutions from each well were then transferred to a fresh 96-well plate and absorbance read at 570 nm. Experiments were tested for 3 different concentration models and one was repeated three times at 5% oxygen and three times at 18% oxygen.
Botanical extracts of grapeseed, skullcap and eclipta and Biotin were screened for their ability to stimulate HDPSC growth in culture using a 96-well plate format with MT assay as an endpoint. Cells were treated for 72 h with various concentrations and combinations with further stock dilutions in the range; 10^−1-10^−5 of the extracts. […] (See Tables 5a, b, c, d, e, f, and g).

male pattern baldness = conditions: human, in vivo; cited from earlier work

Nc1cc(N2CCCCC2)nc(N)[n+]1[O-] [2% minoxidil, minoxidil]
Efficacy Factor Multiple vs 2% Minoxidil [1]: 1.0
Efficacy Factor Multiple vs 2% Minoxidil [2]: 1.0

Nc1cc(N2CCCCC2)nc(N)[n+]1[O-] [5% minoxidil, minoxidil]
Efficacy Factor Multiple vs 2% Minoxidil [1]: 1.9
Efficacy Factor Multiple vs 2% Minoxidil [2]: 1.0

CC(C)(O)[C@@H]1CC[C@](C)([C@H]2[C@@H](O)C[C@@]3(C)[C@@H]4C[C@H](O[C@@H]5O[C@H](CO)[C@@H](O)[C@H](O)[C@H]5O)[C@H]5C(C)(C)[C@@H](O[C@@H]6OC[C@@H](O)[C@H](O)[C@H]6O)CC[C@@]56C[C@@]46CC[C@]23C)O1 [Astragaloside IV]
effect on Bax, p53, Bcl-2 and Bcl-XL [3]: down-regulation of Bax and p53 (pro-apoptotic molecules), and up-regulation of the anti-apoptotic Bcl-2 and Bcl-XL molecules
effect on procaspase-8, caspase-3 and procaspase-9 [3]: blocked the procaspase-8, resulting in the inhibition of the pro-apoptosis enzymes caspase-3 and procaspase-9 activities

O=C(O)CCCC[C@@H]1SC[C@@H]2NC(=O)N[C@@H]21 [Biotin]
relative effect on Wnt/beta-Catenin Signaling (Control=100) ([4]; No Biotin, 18% oxygen, 72 h): 97
luciferase activity in TopFlash transfected HDPSCs, individual replicate measurements (single treatments) ([4]; Table 9b, replicates 1-28, 18% oxygen, 72 h): 21.57 arbitrary luminescence values and 17.5 arbitrary luminescence values and 14.29 arbitrary luminescence values and 19.58 arbitrary luminescence values (2×) and 23.45 arbitrary luminescence values and 26.25 arbitrary luminescence values and 19.99 arbitrary luminescence values and 20.75 arbitrary luminescence values (2×) and 12.46 arbitrary luminescence values and 7.884 arbitrary luminescence values and 11.65 arbitrary luminescence values and 12.51 arbitrary luminescence values (2×) and 16.28 arbitrary luminescence values and 20.14 arbitrary luminescence values and 20.65 arbitrary luminescence values and 10.28 arbitrary luminescence values and 7.63 arbitrary luminescence values and 10.94 arbitrary luminescence values and 15.57 arbitrary luminescence values and 18.62 arbitrary luminescence values and 20.5 arbitrary luminescence values and 14.24 arbitrary luminescence values and 15.72 arbitrary luminescence values and 22.03 arbitrary luminescence values and 23.3 arbitrary luminescence values
luciferase activity in TopFlash transfected HDPSCs, individual replicate measurements (combination experiment with Biotin) ([4]; Table 9d, replicates 1-21, 18% oxygen, 72 h): 79.5782 arbitrary luminescence values and 105.8972 arbitrary luminescence values and 78.0728 arbitrary luminescence values and 83.6682 arbitrary luminescence values and 87.4832 arbitrary luminescence values and 90.9168 arbitrary luminescence values and 94.2910 arbitrary luminescence values and 100.5561 arbitrary luminescence values and 22.6868 arbitrary luminescence values and 41.6603 arbitrary luminescence values and 37.0416 arbitrary luminescence values and 33.2163 arbitrary luminescence values and 44.2139 arbitrary luminescence values and 48.4257 arbitrary luminescence values and 95.4836 arbitrary luminescence values and 110.3368 arbitrary luminescence values and 109.6925 arbitrary luminescence values and 129.5662 arbitrary luminescence values and 112.3295 arbitrary luminescence values
luciferase activity in TopFlash transfected HDPSCs, mean (single treatments) ([4]; Tables 9a/9b, 18% oxygen, 72 h, 560 ± 10 nm, 27-28 replicates): 17.0 ± 0.9 arbitrary luminescence values and 17.02 arbitrary luminescence values
luciferase activity in TopFlash transfected HDPSCs, mean (combination experiment with Biotin) ([4]; Tables 9c/9d, 18% oxygen, 72 h, 18-20 replicates): 79.2 ± 7.3 arbitrary luminescence values and 79.2167 arbitrary luminescence values
relative effect on Wnt/beta-Catenin Signaling (Control=100) ([4]; With Biotin, 18% oxygen, 72 h): 99
% Change vs Control / Wnt/β-catenin Signal Upregulation of Combinations vs Control ([4]; combination with Biotin (or Biotin alone), dilution 10^−3, 18% oxygen): −1.0%
effect of Biotin on Wnt/beta-Catenin signaling upregulated by botanical extracts ([4]; tested in combination with botanical extracts): attenuating or inhibiting effect
HDPSC growth in the MTT assay, result in words ([5]; 72 h, stock dilutions 10^−1-10^−5): statistically significant reduction in the cell population
MTT signal (absorbance at 570 nm), mean relative to Control 1.00 ([5]; Table 5b, dilution 1/10^3, 5% oxygen, 72 h): 1.12
MTT signal (absorbance at 570 nm), mean relative to Control 1.00 ([5]; Table 5b, dilution 1/10^4, 5% oxygen, 72 h): 0.95
MTT signal (absorbance at 570 nm), mean relative to Control 1.00 ([5]; Table 5b, dilution 1/10^5, 5% oxygen, 72 h): 0.69
MTT signal (absorbance at 570 nm), mean relative to Control 1.00 ([5]; Table 5c, dilution 1/10^3, 5% oxygen, 72 h): 0.76
MTT signal (absorbance at 570 nm), mean relative to Control 1.00 ([5]; Table 5c, dilution 1/10^4, 5% oxygen, 72 h): 0.70
MTT signal (absorbance at 570 nm), mean relative to Control 1.00 ([5]; Table 5c, dilution 1/10^5, 5% oxygen, 72 h): 0.95
Change vs Control (stem cells, MTT) ([5]; dilution 1/10^3, 5% oxygen): 52.0%
Change vs Control (stem cells, MTT) ([5]; dilution 1/10^5, 5% oxygen): −21.0%
Change in Stem Cells (MTT signal, mean relative to Control 1.00) ([5]; Table 5d, dilution of stock 1/10^4, 5% oxygen, 72 h): 1.09
Change in Stem Cells (MTT signal, mean relative to Control 1.00) ([5]; Tables 5f/5g, dilution of stock 1/10^3, 18% oxygen, 72 h): 0.99
Change in Stem Cells (MTT signal, mean relative to Control 1.00) ([5]; Tables 5f/5g, dilution of stock 1/10^4, 18% oxygen, 72 h): 1.21
Change in Stem Cells (MTT signal, mean relative to Control 1.00) ([5]; Tables 5f/5g, dilution of stock 1/10^5, 18% oxygen, 72 h): 0.98
Change in Stem Cells (MTT signal, mean relative to Control 1.00) ([5]; Tables 5d/5e, dilution of stock 1/10^3, 5% oxygen, 72 h): 1.52
Change in Stem Cells (MTT signal, mean relative to Control 1.00) ([5]; Tables 5d/5e, dilution of stock 1/10^5, 5% oxygen, 72 h): 0.79
HDPSC population reduced by ([5]; stock dilution 10^−5): 21%
HDPSC Proliferation (MTT, means % relative to Control = 100%) ([5]; stock dilution 10^−5, 5% oxygen, 72 h): 79%

procyanidin
adverse side effects (male pattern baldness): without any adverse side effects
